Test results taken from patent publication US8993574B2, “Pyrrole antifungal agents” (F2G Ltd, priority 2008, dated 2015).
≈ marks a conversion by molar mass, not a printed value.

Legend:
Assay type in all cases: cell-based
[1] = system: Aspergillus flavus; assay: MIC, YAG medium; details: 24 h at 35° C, MIC banded into grades; for MIC: Aspergillus flavus, 24 h, read-out: MIC grade, A. flavus
Method in brief: (§1)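 Endpoint is growth at OD 485 nm after 24 h at 35° C, with MIC defined as the lowest drug level giving >70% inhibition relative to untreated wells and recorded in mg/L. Tests ran in YAG broth with 1−2×10^4 cfu/mL spore inocula from Sabouraud-grown cultures. Drug ranges were 50-0.05 mg/L, repeated at 0.5-0.0005 mg/L when needed.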

[2] = system: Aspergillus fumigatus AF210; assay: MIC, YAG medium; details: 24 h at 35° C, MIC banded into grades; for MIC: Aspergillus fumigatus, read-out: MIC grade, A. fumigatus 210
Method in brief: as §1

[3] = system: Aspergillus fumigatus AF293; assay: MIC, YAG medium; details: 24 h at 35° C, MIC banded into grades; for MIC: Aspergillus fumigatus, read-out: MIC grade, A. fumigatus
Method in brief: as §1

[4] = system: Aspergillus niger; assay: MIC, YAG medium; details: 24 h at 35° C, MIC banded into grades; for MIC: Aspergillus niger, read-out: MIC grade, A. niger
Method in brief: as §1

[5] = system: Aspergillus terreus AT49; assay: MIC, YAG medium; details: 24 h at 35° C, MIC banded into grades; for MIC: Aspergillus terreus, read-out: MIC grade, A. terreus 49
Method in brief: as §1

[6] = system: Aspergillus terreus AT4; assay: MIC, YAG medium; details: 24 h at 35° C, MIC banded into grades; for MIC: Aspergillus terreus, read-out: MIC grade, A. terreus
Method in brief: as §1

[7] = system: Aspergillus flavus; assay: MIC, RPMI medium; details: MIC banded into grades; for MIC: Aspergillus flavus, read-out: MIC grade, A. flavus
Method in brief: (§2)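 Broth microdilution in RPMI with 2% glucose, 0.135 M MOPS pH 7.0; compounds as doubling dilutions, 50-0.05 mg/L, inoculum 1−2×10^4 cfu/mL. Incubated 24-48 h at 35° C; growth by OD 485 nm. MIC is lowest concentration giving >80% growth inhibition versus drug-free control.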

[8] = system: Aspergillus fumigatus AF210; assay: MIC, RPMI medium; details: for MIC: Aspergillus fumigatus, AF210, MIC banded into grades, read-out: MIC grade, A. fumigatus 210
Method in brief: as §2

[9] = system: Aspergillus fumigatus AF293; assay: MIC, RPMI medium; details: for MIC: Aspergillus fumigatus, AF293, MIC banded into grades, read-out: MIC grade, A. fumigatus
Method in brief: as §2

[10] = system: Aspergillus niger; assay: MIC, RPMI medium; details: MIC banded into grades; for MIC: Aspergillus niger, read-out: MIC grade, A. niger
Method in brief: as §2

[11] = system: Aspergillus terreus AT49; assay: MIC, RPMI medium; details: for MIC: Aspergillus terreus, AT49, MIC banded into grades, read-out: MIC grade, A. terreus 49
Method in brief: as §2

[12] = system: Aspergillus terreus AT4; assay: MIC, RPMI medium; details: for MIC: Aspergillus terreus, AT4, MIC banded into grades, read-out: MIC grade, A. terreus
Method in brief: as §2

| MIC [1] [µg/mL] | MIC [2] [µg/mL] | MIC [3] [µg/mL] | MIC [4] [µg/mL] | MIC [5] [µg/mL] | MIC [6] [µg/mL] | MIC [7] [µg/mL] | MIC [8] [µg/mL] | MIC [9] [µg/mL] | MIC [10] [µg/mL] | MIC [11] [µg/mL] | MIC [12] [µg/mL] | SMILES | also measured |
| --- | --- | --- | --- | --- | --- | --- | --- | --- | --- | --- | --- | --- | --- |
| < 1 | < 1 | < 1 | < 1 | < 1 | < 1 | < 1 | < 1 | < 1 | < 1 | < 1 | < 1 | Cc1cc(C)nc(N2CCN(c3ccc(NC(=O)C(=O)c4c(-c5ccccc5)cc(C)n4C)cc3Cl)CC2)c1 [Example 11, N-{3-Chloro-4-[4-(4,6-dimethyl-pyridin-2-yl)-piperazin-1-yl]-phenyl}-2-(1,5-dimethyl-3-phenyl-1H-pyrrol-2-yl)-2-oxo-acetamide] | – |
| < 1 | < 1 | < 1 | < 1 | < 1 | < 1 | < 1 | < 1 | < 1 | < 1 | < 1 | < 1 | Cc1cc(-c2ccccc2)c(C(=O)C(=O)Nc2ccc(N3CCN(Cc4ccccc4)CC3)cc2)n1C [Example 144, N-[4-(4-Benzyl-piperazin-1-yl)-phenyl]-2-(1,5-dimethyl-3-phenyl-1H-pyrrol-2-yl)-2-oxo-acetamide] | – |
| < 1 | < 1 | 1 to 10 (≈ 2.03 to 20.3 µM) | > 10 | < 1 | > 10 | > 10 | > 10 | > 10 | > 10 | 1 to 10 (≈ 2.03 to 20.3 µM) | 1 to 10 (≈ 2.03 to 20.3 µM) | Cc1cc(C)nc(N2CCN(c3ccc(NC(=O)C(=O)c4cc(-c5ccccc5)cn4C)cc3)CC2)c1 [Example 46, N-{4-[4-(4,6-Dimethyl-pyridin-2-yl)-piperazin-1-yl]-phenyl}-2-(1-methyl-4-phenyl-1H-pyrrol-2-yl)-2-oxo-acetamide] | – |
| – | – | – | – | – | – | – | – | – | – | – | – | CCCc1cc(-c2ccccc2)c(C(=O)C(=O)Nc2ccc(N3CCN(c4cc(C)cc(C)n4)CC3)cc2)n1C [Example 124, N-{4-[4-(4,6-Dimethyl-pyridin-2-yl)-piperizin-1-yl]-phenyl}-2-[1-methyl-3-phenyl-5-propyl-1H-pyrrol-2-yl)-2-oxo-acetamide] | MIC grade, A. flavus [1]: 3 (A grade of 3 represents an MIC of less than 1 mg/L); MIC grade, A. fumigatus 210 [2]: 3 (A grade of 3 represents an MIC of less than 1 mg/L); MIC grade, A. fumigatus [3]: 3 (A grade of 3 represents an MIC of less than 1 mg/L); MIC grade, A. niger [4]: 3 (A grade of 3 represents an MIC of less than 1 mg/L); MIC grade, A. terreus 49 [5]: 3 (A grade of 3 represents an MIC of less than 1 mg/L); MIC grade, A. terreus [6]: 3 (A grade of 3 represents an MIC of less than 1 mg/L); MIC grade, A. flavus [7]: 2 (A grade of 2 represents an MIC of from 1 to 10 mg/L); MIC grade, A. fumigatus 210 ([8]; MIC banded into grades): 2 (A grade of 2 represents an MIC of from 1 to 10 mg/L); MIC grade, A. fumigatus ([9]; MIC banded into grades): 2 (A grade of 2 represents an MIC of from 1 to 10 mg/L); MIC grade, A. niger [10]: 1 (a grade of 1 represents an MIC of greater than 10 mg/L); MIC grade, A. terreus 49 ([11]; MIC banded into grades): 2 (A grade of 2 represents an MIC of from 1 to 10 mg/L); MIC grade, A. terreus ([12]; MIC banded into grades): 2 (A grade of 2 represents an MIC of from 1 to 10 mg/L) |
| < 1 | < 1 | < 1 | < 1 | < 1 | < 1 | < 1 | 1 to 10 (≈ 2.71 to 27.1 µM) | 1 to 10 (≈ 2.71 to 27.1 µM) | 1 to 10 (≈ 2.71 to 27.1 µM) | < 1 | < 1 | Cc1cc(-c2ccccc2)c(C(=O)C(=O)Nc2cnc3ccccc3c2)n1C [Example 37, 2-(1,5-Dimethyl-3-phenyl-1H-pyrrol-2-yl)-2-oxo-N-quinolin-3-yl-acetamide] | – |
| 1 to 10 (≈ 1.5 to 15 µM) | > 10 | > 10 | > 10 | 1 to 10 (≈ 1.5 to 15 µM) | > 10 | > 10 | > 10 | > 10 | > 10 | > 10 | > 10 | Cc1cc(C)nc(N2CCN(c3ccc(NC(=O)C(=O)c4c(-c5ccccc5)cc(C)n4C)cc3COCCCN3CCOCC3)CC2)c1 [Example 10, 2-(1,5-Dimethyl-3-phenyl-1H-pyrrol-2-yl)-N-[4-[4-(4,6-dimethyl-pyridin-2-yl)-piperazin-1-yl]-3-(3-morpholin-4-yl-propoxymethyl)-phenyl]-2-oxo-acetamide] | – |
| > 10 | 1 to 10 (≈ 3.18 to 31.8 µM) | 1 to 10 (≈ 3.18 to 31.8 µM) | > 10 | 1 to 10 (≈ 3.18 to 31.8 µM) | 1 to 10 (≈ 3.18 to 31.8 µM) | > 10 | > 10 | > 10 | > 10 | > 10 | > 10 | CCCNC(=O)C(=O)c1c(-c2ccccc2)ccn1CCOC [Example 82, 2-[1-(2-Methoxy-ethyl)-3-phenyl-1H-pyrrol-2-yl]-2-oxo-N-propyl-acetamide] | – |
| < 1 | < 1 | < 1 | < 1 | < 1 | < 1 | > 10 | < 1 | < 1 | < 1 | < 1 | < 1 | Cc1cc(-c2ccccc2)c(C(=O)C(=O)Nc2ccc(N3CCN(c4ccccn4)CC3)c(F)c2)n1C [Example 116, 2-(1,5-Dimethyl-3-phenyl-1H-pyrrol-2-yl)-N-[3-fluoro-4-(4-pyridin-2-yl-piperazin-1-yl)-phenyl]-2-oxo-acetamide] | – |
| 1 to 10 (≈ 1.93 to 19.3 µM) | < 1 | < 1 | 1 to 10 (≈ 1.93 to 19.3 µM) | 1 to 10 (≈ 1.93 to 19.3 µM) | 1 to 10 (≈ 1.93 to 19.3 µM) | > 10 | 1 to 10 (≈ 1.93 to 19.3 µM) | > 10 | 1 to 10 (≈ 1.93 to 19.3 µM) | > 10 | > 10 | COCCn1c(C)cc(C(C)C)c1C(=O)C(=O)Nc1ccc(N2CCN(c3cc(C)cc(C)n3)CC2)cc1 [Example 25, N-{4-[4-(4,6-Dimethyl-pyridin-2-yl)-piperazin-1-yl]-phenyl}-2-[3-isopropyl-1-(2-methoxy-ethyl)-5-methyl-1H-pyrrol-2-yl]-2-oxo-acetamide] | – |
| < 1 | < 1 | 1 to 10 (≈ 2.57 to 25.7 µM) | 1 to 10 (≈ 2.57 to 25.7 µM) | < 1 | < 1 | < 1 | 1 to 10 (≈ 2.57 to 25.7 µM) | < 1 | < 1 | < 1 | < 1 | Cc1cc(-c2ccccc2)c(C(=O)C(=O)Nc2ccc(N3CCCC3)nc2)n1C [Example 99, 2-(1,5-Dimethyl-3-phenyl-1H-pyrrol-2-yl)-2-oxo-N-(6-pyrrolidin-1-yl-pyridin-3-yl)-acetamide] | – |
| < 1 | < 1 | < 1 | < 1 | < 1 | < 1 | < 1 | < 1 | < 1 | < 1 | < 1 | < 1 | Cc1cc(C)nc(N2CCN(c3ccc(NC(=O)C(=O)c4c(-c5ccco5)cc(C)n4C)cc3)CC2)c1 [Example 12, N-{4-[4-(4,6-Dimethyl-pyridin-2-yl)-piperazin-1-yl]-phenyl}-2-(3-furan-2-yl-1,5-dimethyl-1H-pyrrol-2-yl)-2-oxo-acetamide] | – |
| < 1 | < 1 | < 1 | < 1 | < 1 | < 1 | < 1 | 1 to 10 (≈ 2.71 to 27.1 µM) | < 1 | < 1 | < 1 | < 1 | Cc1cc(-c2ccccc2)c(C(=O)C(=O)Nc2cccc3ccccc23)n1C [Example 16, 2-(1,5-Dimethyl-3-phenyl-1H-pyrrol-2-yl)-N-naphthalen-1-yl-2-oxo-acetamide] | – |
| 1 to 10 (≈ 1.63 to 16.3 µM) | > 10 | 1 to 10 (≈ 1.63 to 16.3 µM) | > 10 | 1 to 10 (≈ 1.63 to 16.3 µM) | 1 to 10 (≈ 1.63 to 16.3 µM) | > 10 | > 10 | > 10 | > 10 | > 10 | > 10 | Cc1cc(C)nc(N2CCN(c3ccc(NC(=O)C(=O)c4c(-c5ccccc5)cc(C)n4CCOc4ccccc4)cc3)CC2)c1 [Example 134, N-{4-[4-(4,6-Dimethyl-pyridin-2-yl)-piperazin-1-yl]-phenyl}-2-[5-methyl-1-(2-phenoxy-ethyl)-3-phenyl-1H-pyrrol-2-yl]-2-oxo-acetamide] | – |
